Experimental data taken from patent publication US9663496B2, “AMPK-activating heterocyclic compounds and methods for using the same” (Rigel Pharmaceuticals, Inc., priority 2010, dated 2017).

The compounds below were run against AMPK (assay: AMPK activation, enzyme-linked immunosorbent assay). Details: EC50 for AMPK activation, ELISA.
Type: biochemical
Procedure, shortened: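 Activation by each compound is measured using a conventional commercial immunoassay kit.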

EC50, < 500 nM:
CC(=O)c1ccc(Oc2ccc(NC(=O)c3ccc(C(=O)N4CCN(c5ccc(S(=O)(=O)C(C)C)cc5)CC4)nc3)cn2)cc1 [Compound 489, N-(6-(4-acetylphenoxy)pyridin-3-yl)-6-(4-(4-(isopropylsulfonyl)phenyl)piperazine-1-carbonyl)nicotinamide]
N#Cc1ccc(OC2CCN(C(=O)c3ccc(C(=O)NC4CCN(Cc5ccc(N6CCCC6)cc5)CC4)nc3)CC2)cc1 [Compound 197, 5-(4-(4-cyanophenoxy)piperidine-1-carbonyl)-N-(1-(4-(pyrrolidin-1-yl)benzyl)piperidin-4-yl)picolinamide]
O=C(NC1CCN(Cc2ccc(OC(F)(F)F)cc2)CC1)c1ccc(C(=O)N2CCC(Oc3ccc(S(F)(F)(F)(F)F)cc3)CC2)nc1 [Compound 494, 6-(4-(4-(pentafluorosulfanyl)phenoxy)piperidine-1-carbonyl)-N-(1-(4-(trifluoromethoxy)benzyl)piperidin-4-yl)nicotinamide]
COc1ccc(OC2CCN(C(=O)c3ccc(C(=O)N[C@H]4CC[C@@H](Oc5ccc(OC)cc5)CC4)nc3)CC2)cc1 [Compound 186, N-((cis)-4-(4-methoxyphenoxy)cyclohexyl)-5-(4-(4-methoxyphenoxy)piperidine-1-carbonyl)picolinamide]
N#Cc1ccc(CN2CCC3(CC2)CCN(c2ccc(C(=O)N4CCN(Cc5ccc(F)cc5)CC4)cn2)C3)cc1 [Compound 31, 4-((2-(5-(4-(4-fluorobenzyl)piperazine-1-carbonyl)pyridin-2-yl)-2,8-diazaspiro[4.5]decan-8-yl)methyl)benzonitrile]
O=C(NC1CCN(Cc2ccc(F)cc2)CC1)c1ccc(C(=O)N2CC[C@H](Oc3ccc(F)cc3)C2)cn1 [Compound 182, (S)-N-(1-(4-fluorobenzyl)piperidin-4-yl)-5-(3-(4-fluorophenoxy)pyrrolidine-1-carbonyl)picolinamide]
